Read-outs that look alike come from different tables or passages of the source.
Legend:
AC1 = biological target: T1, AC1 (Homo sapiens, UniProt Q08828); experiment: cAMP accumulation assay, AC1-HEK Δ3/6 KO cells; type: cell-based; conditions: for inhibition of AC1 activity: CDI analog set, maximal inhibition of A23187 response; for inhibition of AC1 activity (efficacy): initial characterization of hits, data not shown
T1 construct: expressed in transfected cells
Description: Cells were then incubated for 1 h at 37°C and 5% CO2. Cells were then treated with varying concentrations of inhibitors for 30 min, followed by treatment with calcium ionophore A23187 (3 μM) in 500 μM 3-isobutyl-1-methylxanthine (IBMX), a phosphodiesterase inhibitor, for 1 h at RT (Sigma Aldrich, St. Louis, MO). Finally, Cisbio HTRF detection reagents were added and incubated for 1–24 h at RT. Plates were read according to manufacturer’s protocol on an HTRF-compatible plate reader at 620 and 665 nm cAMP concentrations were interpolated from a cAMP standard curve. […] For cytotoxicity assays, compounds were tested at 30 μM and this protocol was used with the exception of detection reagents; CellTiter-Glo 2.0 reagent was used according to manufacturer’s protocol and luminescence was read on the Synergy Neo2 plate reader. Data are normalized to cells treated with vehicle (100%) or 2% tween (0%) and are represented as the percent of vehicle, from the average of three independent experiments (N = 3).

[1] = Cytotoxicity assay (CellTiter-Glo 2.0) in AC1-HEK Δ3/6 KO cells; type: cell-based; conditions: human, percent of vehicle, read-out: % Viable Cells at AC1 30 μM
Description: (§1) Cryopreserved HEK293 cells with AC3 and AC6 knocked out, and stably expressing AC1, AC2, AC5, or AC8 (AC1-HEK Δ3/6 KO, AC2-HEK Δ3/6 KO, AC5-HEK Δ3/6 KO, or AC8-HEK Δ3/6 KO cells, respectively; [Soto-Velasquez et al., 2018]) were plated at 5,000 cells/well. Cells were then incubated for 1 h at 37°C and 5% CO2. Cells were then treated with varying concentrations of inhibitors for 30 min, followed by treatment with calcium ionophore A23187 (3 μM) in 500 μM 3-isobutyl-1-methylxanthine (IBMX), a phosphodiesterase inhibitor, for 1 h at RT (Sigma Aldrich, St. Louis, MO). Finally, Cisbio HTRF detection reagents were added and incubated for 1–24 h at RT. Plates were read according to manufacturer’s protocol on an HTRF-compatible plate reader at 620 and 665 nm cAMP concentrations were interpolated from a cAMP standard curve. […] For cytotoxicity assays, compounds were tested at 30 μM and this protocol was used with the exception of detection reagents; CellTiter-Glo 2.0 reagent was used according to manufacturer’s protocol and luminescence was read on the Synergy Neo2 plate reader. Data are normalized to cells treated with vehicle (100%) or 2% tween (0%) and are represented as the percent of vehicle, from the average of three independent experiments (N = 3).

AC2 = biological target: T2, AC2 (Homo sapiens, UniProt Q08462); experiment: cAMP accumulation assay, AC2-HEK Δ3/6 KO cells; type: cell-based; conditions: for inhibition at 30 µM: read-out: % Inhibited at AC2 ± SEM
T2 construct: expressed in transfected cells
Description: as §1

AC8 = biological target: T3, AC8 (Homo sapiens, UniProt P40145); experiment: cAMP accumulation assay, AC8-HEK Δ3/6 KO cells; type: cell-based; conditions: CDI analog SAR set, 3 μM A23187; read-out: IC50 (μM) ± SEM AC8
T3 construct: expressed in transfected cells
Description: as §1

AC5 = biological target: T4, AC5 (Homo sapiens, UniProt O95622); experiment: cAMP accumulation assay, AC5-HEK Δ3/6 KO cells; type: cell-based; conditions: for inhibition at 30 µM: read-out: % Inhibited at AC5 ± SEM
T4 construct: expressed in transfected cells
Description: as §1

AC8-C2b/CaM = biological target: T5, AC8-C2b/CaM (Homo sapiens, UniProt P0DP23); experiment: AC8-C2b/CaM FP counterscreen assay; type: binding; conditions: for Ki (μM) AC8 C2b: Cheng-Prusoff from FP IC50 and Kd, n/i given where none; for Ki ratio (AC8-C2b/AC1): ratio >1: more potent in AC1/CaM FP;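 for all read-outs here: fluorescence polarization of AC peptide binding to GST-CaM in HEPES buffer with KCl and 50 µM CaCl2, compound preincubated 30 min with GST-CaM, DMSO and calmidazolium as controls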
T5 construct: made in house; host or cells: E. coli BL21-CodonPlus (DE3)-RIPL

HEK293T cells = experiment: CellTiter-Glo 2.0 cell viability assay; type: cell-based;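 note: luminescence read-out after 30 min compound exposure at 37 °C in HEPES-buffered HBSS, scaled to vehicle-treated cells as 100% and cell-free buffer wells as 0%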
[2] = CellTiter-Glo 2.0 cell viability assay; type: cell-based; conditions: human, HEK293T cells, pH 7.4; for viability at 30 min: at the compound's AC1/CaM NanoBiT IC50 concentration, read-out: % Viable Cells at AC1 IC50;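 for all read-outs here: luminescence read-out after 30 min compound exposure at 37 °C in HEPES-buffered HBSS, scaled to vehicle-treated cells as 100% and cell-free buffer wells as 0%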
CaM = biological target: T6, CaM (Homo sapiens, UniProt P0DP23); experiment: 1H-15N HSQC NMR of 15N-CaM with compound; type: binding; conditions: 5 equivalent molar excess over 100 μM CaM
T6 construct: 6X-His-GST (N, cleaved yes); made in house; host or cells: E. coli BL21-CodonPlus (DE3)-RIPL in M9 minimal media with 15NH4Cl
Description: All NMR samples contained 100 μM ^15N-CaM in 20 mM HEPES pH 7.4, 100 mM KCl, 10 mM CaCl2, 10% D2O, and 5% DMSO. Initial spectra were collected for CaM alone before individual compounds were titrated to observe chemical shift perturbations. All spectra were acquired at 298 K using a 600 MHz Bruker Avance NEO NMR spectrometer with a triple resonance gradient cryoprobe. NMR spectra were processed using NMRPipe and analyzed using NMRFAM-SPARKY.

AC8/CaM PPI = biological target: T7, AC8/CaM PPI (Homo sapiens, UniProt P0DP23); experiment: AC8/CaM NanoBiT assay in HEK293T cells; type: cell-based, rat; conditions: for IC50: HEK293T, thapsigargin-stimulated, AUC, read-out: Nanobit: AC8-CaM IC50 (μM ± SEM); for fold selective for AC8 over AC1 in the NanoBiT assay: AC8/CaM vs AC1/CaM NanoBiT
T7 construct: confirmed as an AC1/AC8 non-selective hit against full-length AC1- and AC8-CaM in the NanoBiT assay; The hCaM residues 1–149, residues 1–1,248 of rat AC8 (rAC8); expressed in transfected cells; host or cells: HEK293T, transient transfection

AC1/CaM PPI = biological target: T8, AC1/CaM PPI (Homo sapiens, UniProt P0DP23); experiment: AC1/CaM NanoBiT assay in HEK293T cells; type: cell-based; conditions: for IC50: HEK293T, thapsigargin-stimulated, AUC, read-out: Nanobit: AC1-CaM IC50 (μM ± SEM)
T8 construct: human AC1 (hAC1) residues 1–1,118 were cloned; The hCaM residues 1–149, residues 1–1,248 of rat AC8 (rAC8); expressed in transfected cells; host or cells: HEK293T, transient transfection

AC1-C1b/CaM = biological target: T9, AC1-C1b/CaM (Homo sapiens, UniProt P0DP23); experiment: AC1-C1b/CaM fluorescence polarization (FP) assay; type: binding; conditions: for IC50: 100 nM AC1-C1b, 100 nM GST-CaM, 95% CI in brackets; for Ki: Cheng-Prusoff from FP IC50 and Kd; for AC1-CaM FP % inhib: relative to 100 μM CDZ (100% inhibition), highest concentration tested
T9 construct: made in house; host or cells: E. coli BL21-CodonPlus (DE3)-RIPL

AC8-Nt/CaM = biological target: T10, AC8-Nt/CaM (Homo sapiens, UniProt P0DP23); experiment: AC8-Nt/CaM FP counterscreen assay; type: binding; conditions: for Ki (μM) AC8 NT: Cheng-Prusoff from FP IC50 and Kd, n/i given where none; for Ki ratio (AC8 NT/AC1): ratio >1: more potent in AC1/CaM FP;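 for all read-outs here: fluorescence polarization of AC peptide binding GST-CaM in HEPES buffer with CaCl2, compound preincubated with CaM 30 min, peptide read after 2 h at room temperature in dark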
T10 construct: made in house; host or cells: E. coli BL21-CodonPlus (DE3)-RIPL

[3] = CDI analog SAR set, 3 μM A23187, read-out: IC50 (μM) ± SEM AC1
[4] = initial examination, 10,000 cells per well, 3 μM A23187, 1 h RT, read-out: AC1 IC50 ± SEM

T3 sequence (P40145 whole entry, species assumed): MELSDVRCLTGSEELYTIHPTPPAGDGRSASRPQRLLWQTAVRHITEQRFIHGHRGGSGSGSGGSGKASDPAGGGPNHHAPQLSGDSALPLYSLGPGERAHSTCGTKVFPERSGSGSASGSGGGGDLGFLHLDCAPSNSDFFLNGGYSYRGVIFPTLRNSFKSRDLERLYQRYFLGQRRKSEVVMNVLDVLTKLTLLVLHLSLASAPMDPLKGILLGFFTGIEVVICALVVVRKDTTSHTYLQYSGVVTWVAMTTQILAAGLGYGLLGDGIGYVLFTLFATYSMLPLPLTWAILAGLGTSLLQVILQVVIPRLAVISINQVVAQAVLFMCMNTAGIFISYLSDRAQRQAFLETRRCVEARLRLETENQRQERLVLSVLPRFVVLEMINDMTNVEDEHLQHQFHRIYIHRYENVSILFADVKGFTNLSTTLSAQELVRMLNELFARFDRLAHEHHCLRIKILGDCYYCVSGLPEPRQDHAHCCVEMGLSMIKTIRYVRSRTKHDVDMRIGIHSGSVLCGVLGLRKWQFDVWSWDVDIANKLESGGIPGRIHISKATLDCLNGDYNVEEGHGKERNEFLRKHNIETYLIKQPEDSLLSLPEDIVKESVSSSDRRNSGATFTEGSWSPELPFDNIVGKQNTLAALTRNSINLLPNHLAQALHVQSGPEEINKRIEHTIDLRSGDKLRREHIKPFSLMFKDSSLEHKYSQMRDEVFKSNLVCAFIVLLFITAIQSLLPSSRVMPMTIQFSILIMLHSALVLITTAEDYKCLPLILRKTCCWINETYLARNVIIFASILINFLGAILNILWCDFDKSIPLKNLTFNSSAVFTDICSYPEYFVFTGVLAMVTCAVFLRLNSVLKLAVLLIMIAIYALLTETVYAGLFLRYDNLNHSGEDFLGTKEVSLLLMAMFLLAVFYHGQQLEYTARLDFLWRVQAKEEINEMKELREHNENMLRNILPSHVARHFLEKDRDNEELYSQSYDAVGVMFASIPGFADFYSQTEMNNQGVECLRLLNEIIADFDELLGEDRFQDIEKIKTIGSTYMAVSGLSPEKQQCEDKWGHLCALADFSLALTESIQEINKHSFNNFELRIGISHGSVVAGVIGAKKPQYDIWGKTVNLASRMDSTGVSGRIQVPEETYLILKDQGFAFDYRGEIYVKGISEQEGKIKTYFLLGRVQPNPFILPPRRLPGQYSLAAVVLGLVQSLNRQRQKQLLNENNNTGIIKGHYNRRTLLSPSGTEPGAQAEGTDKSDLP
T4 sequence (O95622 whole entry, species assumed): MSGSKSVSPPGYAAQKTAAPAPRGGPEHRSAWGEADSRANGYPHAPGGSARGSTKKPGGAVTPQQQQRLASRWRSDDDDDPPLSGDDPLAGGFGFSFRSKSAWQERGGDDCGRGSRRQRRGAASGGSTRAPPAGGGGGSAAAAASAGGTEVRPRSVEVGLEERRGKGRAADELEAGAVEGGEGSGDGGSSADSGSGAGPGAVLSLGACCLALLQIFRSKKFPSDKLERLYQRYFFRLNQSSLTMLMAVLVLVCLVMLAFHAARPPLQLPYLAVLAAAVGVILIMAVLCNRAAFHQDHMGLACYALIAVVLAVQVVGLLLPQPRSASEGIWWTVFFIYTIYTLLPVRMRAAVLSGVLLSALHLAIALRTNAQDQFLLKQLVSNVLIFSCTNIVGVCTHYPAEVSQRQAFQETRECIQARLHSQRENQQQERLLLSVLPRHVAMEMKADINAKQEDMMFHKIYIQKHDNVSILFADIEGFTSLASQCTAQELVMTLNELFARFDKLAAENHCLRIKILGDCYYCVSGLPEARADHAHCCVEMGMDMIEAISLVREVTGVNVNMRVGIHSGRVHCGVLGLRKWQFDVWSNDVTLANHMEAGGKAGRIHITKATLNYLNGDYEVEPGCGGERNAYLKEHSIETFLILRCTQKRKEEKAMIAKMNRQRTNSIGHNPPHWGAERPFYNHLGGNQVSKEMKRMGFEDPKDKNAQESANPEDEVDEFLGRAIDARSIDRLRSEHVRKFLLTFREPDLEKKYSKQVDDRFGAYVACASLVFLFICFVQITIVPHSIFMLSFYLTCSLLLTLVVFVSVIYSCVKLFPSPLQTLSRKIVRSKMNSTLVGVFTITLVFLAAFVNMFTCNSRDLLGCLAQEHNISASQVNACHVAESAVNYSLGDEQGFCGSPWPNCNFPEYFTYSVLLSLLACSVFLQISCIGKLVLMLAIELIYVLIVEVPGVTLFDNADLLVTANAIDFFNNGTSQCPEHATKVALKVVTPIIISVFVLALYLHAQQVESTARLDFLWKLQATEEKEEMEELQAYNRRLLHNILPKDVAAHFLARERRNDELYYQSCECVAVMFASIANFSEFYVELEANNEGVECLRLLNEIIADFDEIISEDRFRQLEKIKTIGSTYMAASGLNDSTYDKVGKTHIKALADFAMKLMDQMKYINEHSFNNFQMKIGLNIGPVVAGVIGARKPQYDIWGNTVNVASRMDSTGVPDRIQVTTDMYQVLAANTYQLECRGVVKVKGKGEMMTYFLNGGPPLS
T1 sequence (Q08828 whole entry): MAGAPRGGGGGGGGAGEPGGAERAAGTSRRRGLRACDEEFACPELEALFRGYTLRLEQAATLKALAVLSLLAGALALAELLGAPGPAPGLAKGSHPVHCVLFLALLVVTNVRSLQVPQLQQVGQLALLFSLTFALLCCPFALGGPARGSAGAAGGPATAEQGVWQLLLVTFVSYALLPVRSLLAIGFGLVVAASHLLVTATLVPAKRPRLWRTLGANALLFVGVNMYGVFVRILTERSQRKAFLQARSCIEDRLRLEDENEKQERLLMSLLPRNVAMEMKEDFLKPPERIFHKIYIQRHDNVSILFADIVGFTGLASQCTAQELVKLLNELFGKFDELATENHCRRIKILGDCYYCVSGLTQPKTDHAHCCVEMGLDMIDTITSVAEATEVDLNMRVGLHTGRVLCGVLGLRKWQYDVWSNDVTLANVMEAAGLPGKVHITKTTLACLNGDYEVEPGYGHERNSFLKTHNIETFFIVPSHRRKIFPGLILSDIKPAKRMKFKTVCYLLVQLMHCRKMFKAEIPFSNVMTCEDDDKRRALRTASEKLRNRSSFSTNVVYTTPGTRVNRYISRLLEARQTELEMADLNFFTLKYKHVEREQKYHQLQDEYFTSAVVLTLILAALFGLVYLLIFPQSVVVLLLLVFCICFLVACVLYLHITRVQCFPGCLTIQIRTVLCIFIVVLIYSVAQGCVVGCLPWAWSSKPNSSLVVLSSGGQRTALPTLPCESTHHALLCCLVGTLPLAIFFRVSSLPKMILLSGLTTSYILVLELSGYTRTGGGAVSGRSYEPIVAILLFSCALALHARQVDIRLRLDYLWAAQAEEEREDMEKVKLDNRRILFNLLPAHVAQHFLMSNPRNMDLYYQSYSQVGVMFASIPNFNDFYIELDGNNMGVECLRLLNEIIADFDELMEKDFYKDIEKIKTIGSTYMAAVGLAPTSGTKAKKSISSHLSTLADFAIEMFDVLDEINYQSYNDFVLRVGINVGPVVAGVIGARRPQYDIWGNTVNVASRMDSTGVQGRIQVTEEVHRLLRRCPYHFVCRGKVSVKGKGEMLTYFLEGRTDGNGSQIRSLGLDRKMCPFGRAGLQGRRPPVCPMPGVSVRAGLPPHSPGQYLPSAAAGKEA
T2 sequence (Q08462 whole entry): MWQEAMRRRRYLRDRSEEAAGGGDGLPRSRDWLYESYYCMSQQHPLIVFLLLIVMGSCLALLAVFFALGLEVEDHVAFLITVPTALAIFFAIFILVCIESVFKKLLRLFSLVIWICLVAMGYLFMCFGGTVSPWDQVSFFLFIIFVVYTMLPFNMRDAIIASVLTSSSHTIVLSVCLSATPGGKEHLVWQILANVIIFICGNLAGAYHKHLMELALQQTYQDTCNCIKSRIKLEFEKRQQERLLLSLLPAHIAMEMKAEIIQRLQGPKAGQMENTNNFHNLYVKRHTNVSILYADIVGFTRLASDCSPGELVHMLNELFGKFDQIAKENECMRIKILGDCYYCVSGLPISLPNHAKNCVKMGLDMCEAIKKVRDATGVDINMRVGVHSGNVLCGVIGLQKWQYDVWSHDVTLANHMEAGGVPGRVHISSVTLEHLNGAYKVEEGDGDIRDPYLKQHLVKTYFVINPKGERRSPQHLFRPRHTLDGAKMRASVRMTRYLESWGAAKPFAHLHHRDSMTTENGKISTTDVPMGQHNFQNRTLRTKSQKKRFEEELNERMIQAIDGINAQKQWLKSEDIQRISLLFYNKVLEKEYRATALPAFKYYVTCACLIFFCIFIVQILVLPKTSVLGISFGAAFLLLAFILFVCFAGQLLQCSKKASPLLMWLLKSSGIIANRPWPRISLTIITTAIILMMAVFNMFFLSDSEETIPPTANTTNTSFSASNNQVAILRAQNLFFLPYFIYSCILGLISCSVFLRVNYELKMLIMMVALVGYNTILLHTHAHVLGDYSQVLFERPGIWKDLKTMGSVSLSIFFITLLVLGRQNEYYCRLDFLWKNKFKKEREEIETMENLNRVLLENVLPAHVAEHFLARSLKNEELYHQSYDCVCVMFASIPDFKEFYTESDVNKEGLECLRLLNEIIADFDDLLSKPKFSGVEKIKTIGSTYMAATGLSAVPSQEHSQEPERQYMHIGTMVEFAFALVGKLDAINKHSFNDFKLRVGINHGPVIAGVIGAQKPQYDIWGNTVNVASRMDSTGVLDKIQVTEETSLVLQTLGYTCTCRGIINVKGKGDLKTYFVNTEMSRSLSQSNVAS

Row | Structure (SMILES) | IC50 (AC1; [3]) [µM] | inhibition of AC1 activity (AC1) [%] | viability at 30 min, 30 μM [1] [%] | inhibition at 30 µM (AC2) [%] | IC50 (AC8) [µM] | inhibition at 30 µM (AC5) [%] | Ki (μM) AC8 C2b (AC8-C2b/CaM) | Ki ratio (AC8-C2b/AC1) (AC8-C2b/CaM) | inhibition of AC1 activity (efficacy) (AC1) [%] | IC50 (AC1; [4]) [µM] | cell viability at ∼300 μM (HEK293T cells) | viability at 30 min [2] [%] | chemical shift perturbations (CSP) of 15N-CaM (CaM) | IC50 (AC8/CaM PPI) [µM] | IC50 (AC1/CaM PPI) [µM] | IC50 (AC1-C1b/CaM) [µM] | Ki (AC1-C1b/CaM) [µM] | AC1-CaM FP % inhib (AC1-C1b/CaM) [%] | Ki (μM) AC8 NT (AC8-Nt/CaM) | Ki ratio (AC8 NT/AC1) (AC8-Nt/CaM) | also measured
1 | Cc1cc(C(c2cccs2)N2CCN(C)CC2)c(NC(=O)c2ccco2)s1 (centres unmarked) [Compound 25] | 6.39 ± 0.89 | 100 | 94 | 52 ± 11 | 8.85 ± 2.7 | 46 ± 5 | – | – | – | – | – | – | – | – | – | – | – | – | – | – | –
2 | CCc1cc(C(c2cccs2)N2CCN(C)CC2)c(NC(=O)c2ccco2)s1 (centres unmarked) [Compound 15] | 4.36 ± 0.32 | 100 | 43 | 59 ± 14 | 3.9 ± 1.83 | 47 ± 10 | n/i | AC1 Selective | ~75 | 4.88 ± 2.14 | decrease in cell viability | 100 | several peaks were broadened by intermediate exchange and disappeared | 33.3 ± 1.18 | 26.1 ± 1.17 | 22.1 | 5.2 | 58 | n/i | AC1 Selective | inhibition of AC8-CaM interaction in NanoBiT (AC8/CaM PPI; full-length proteins): 100%; inhibition of AC1-CaM interaction in NanoBiT (AC1/CaM PPI; full-length proteins): 100%
3 | O=S(=O)(Nc1ccc2c(c1)N(S(=O)(=O)c1ccc(F)cc1)CCC2)c1cccc(F)c1 [Compound 18] | – | – | – | – | – | – | n/i | AC1 Selective | ~70 | 6.7 ± 0.7 | – | 100 | modest chemical shift changes | 5.71 ± 1.22 | 16.1 ± 1.12 | 38.4 | 9.1 | 54 | n/i | AC1 Selective | viability at 30 min, 316 µM ([2]; 316 μM, read-out: cell viability at highest concentration tested): 90%; fold selective for AC8 over AC1 in the NanoBiT assay (AC8/CaM PPI): ~3 fold
4 | CC(=O)Oc1c(Sc2ccc(Cl)cc2)c(C)nn1C(C)(C)C [Compound 13] | – | – | – | – | – | – | n/i | AC1 Selective | – | 31 ± 6.63 | decrease in cell viability | 96 | largest CSPs | 13.1 ± 1.19 | 16.1 ± 1.13 | 73.5 | 17.4 | – | n/i | AC1 Selective | cell viability reduced at highest concentration tested (HEK293T cells; 316 μM): ~50%
5 | Cn1cc(C(=O)Nc2ccc(Cl)cc2Cl)c2[nH]c(=O)n(-c3ccc(Cl)cc3)c(=O)c21 [Compound 21] | – | – | – | – | – | – | n/i | AC1 Selective | ~50 | 8.77 ± 4.47 | – | 100 | modest chemical shift changes | 6.8 ± 1.19 | 25.6 ± 1.42 | 9.9 | – | 59 | n/i | AC1 Selective | fold selective for AC8 over AC1 in the NanoBiT assay (AC8/CaM PPI): 2- to 4 fold
6 | CCc1cc(C(c2cccs2)N2CCC(C)CC2)c(NC(=O)c2ccco2)s1 (centres unmarked) [Compound 24] | 2.75 ± 0.82 | 100 | 77 | < 16 | 2.7 ± 0.24 | < 16 | – | – | – | – | – | – | – | – | – | – | – | – | – | – | % Inhibited at AC2 ± SEM (AC2; 30 μM): 15 ± 11%; % Inhibited at AC5 ± SEM (AC5; 30 μM): 16 ± 11%

— article PMC9486168, “Protein-protein interaction-based high throughput screening for adenylyl cyclase 1 inhibitors: Design, implementation, and discovery of a novel chemotype” (Frontiers in Pharmacology, 2022)
